We go through 4 compounds from ChEMBL document CHEMBL1135041, “Synthesis and first biological evaluation of 1-aza-9-oxafluorenes as novel lead structures for the development of small-sized cytostatics” (2002).

Format in all cases: functional
Common to all, as to conditions: Homo sapiens

One assay relates to IGROV-1. Kind of assay: Growth inhibition against IGROVI (ovarian cancer) cell line using SRB protein cytotoxicity assay.
For a further assay, the system named is KM12. Briefly: Growth inhibition against KM12 (colon cancer) cancer cell line using SRB protein cytotoxicity assay.
A further assay deals with NCI/ADR-RES. Briefly: Growth inhibition against NCI/ADR-RES (breast cancer) cell line using SRB protein cytotoxicity assay.
The test system of a further assay is SF-268. Briefly: Growth inhibition against SF-268 cancer cell line using SRB protein cytotoxicity assay.
Another assay concerns SNB-75. Kind of assay: Growth inhibition against SNB-75 (CNS cancer) cell line using SRB protein cytotoxicity assay.

For orientation: GI50 means the concentration giving 50% growth inhibition. Low values mean more potent growth inhibition, high ones less potent growth inhibition.

Turning to `CC(=O)c1cnc2oc3ccc(O)cc3c2c1-c1ccccc1`, the GI50 in the assay on IGROV-1 turned out to be 5 µM; with KM12 it was 40.8 µM; in the assay with NCI/ADR-RES, 19.6 µM; in the assay on SF-268 it was 27.7 µM; with SNB-75, 2.6 µM.
Take `CC(=O)c1cnc2oc3ccc(O)cc3c2c1C`: the GI50 with SF-268 is more than 100 µM.
As for `CCOC(=O)c1cnc2oc3ccc(O)cc3c2c1C`, the GI50 in the assay on IGROV-1 was 86 µM; with KM12, 70.3 µM; with NCI/ADR-RES, 41 µM; with SF-268, 69.9 µM; in the assay with SNB-75, 26 µM.
On the same counts, the results for `CCOC(=O)c1cnc2oc3ccc(O)cc3c2c1-c1ccccc1` are 2.5 µM, 5.1 µM, 4.7 µM, 29.7 µM and 16.5 µM.
